# Results reported in patent US20210379094A1, “METHOD FOR REDUCING DRUG-INDUCED NEPHROTOXICITY” (Yissum Research Development Company of the Hebrew …, priority 2019, published 2021).
# Where “and” joins values, the source holds several entries; their conditions need not be identical. Identical values can stand only once.
# Tests used:
# Format in all cases: cell-based, human
# HK-2 organoids [1] = assay: Metabolic flux analysis (glucose, lactate, glutamine, oxygen) of perfused organoids; settings: for ATP production drop / Lipogenesis increase / glycolysis drop: 31 hours exposure to sub-toxic concentration (12.5 μM Cyclosporine A, 32 μM Cisplatin, 32 mM Gentamicin)
# Experimental: Amperometric glucose and lactate sensors were purchased from Innovative Sensor Technology (IST, Switzerland). […] Both sensors produce H2O2 in amounts proportional to the measured metabolite, which is detected with platinum electrodes under polarized condition. […] Measurements were carried out and calibrated to sensitivity decrease by on-chip potentiostat (IST, Switzerland). Glucose uptake, oxygen uptake, and lactate production rates were measured by calculating the change in metabolite concentration between the bioreactor in- and outflow as a function of perfusion rate and cell number. Metabolic rates were calculated assuming negligible contribution to oxygen uptake by fatty acid oxidation and enzymatic activity. […] Based on these assumptions, oxidative phosphorylation flux was calculated by dividing the oxygen uptake rate by six. It was estimated that 32 ATP molecules were generated by complete oxidation of one molecule of glucose. Glycolysis flux was calculated by dividing lactate production rate by two, with maximal rate defined by glucose uptake rate minus the oxidative phosphorylation flux. ATP production in glycolysis was estimated to be two molecules per molecule of glucose. It was assumed that any glucose left over was directed toward lipogenesis, because the contribution of pentose phosphate pathway in non-proliferating cells is minor. […] ATP production in glutaminolysis was estimated to be three molecules per molecule of lactate generated.
# HK-2 organoids [2] = assay: Real-time oxygen uptake / time to onset in perfused organoid bioreactor; settings: for Oxygen uptake drop: after 33 hours continuous perfusion, 12.5 μM Cyclosporine A, 32 μM Cisplatin, 32 mM Gentamicin
# Experimental: Polydimethylsiloxane (PDMS) microwell inserts were sterilized with 70% EtOH and 30-min exposure to UV light prior to cell seeding. Kidney cells were trypsinized, counted, and centrifuged at 300×g for 5 min at 4° C. […] Then, 1.35 μl of Matrigel® suspension containing cells and oxygen-sensing beads was seeded in each well using […] M P10M (Gilson, UK). The inoculated microwell insert was then incubated for 30 min at 37° C. to polymerize the gel. Following polymerization, the insert was immersed in 3 ml of cell culture medium and incubated overnight at 37° C. prior to being sealed in the bioreactor housing. Bioreactors were then placed in a climate control chamber on an IX81 fluorescence microscope (Olympus, Japan). Bioreactors were continuously perfused with cell culture medium noted above supplemented with 10 mM HEPES and 1% DMSO at a flow rate of 5 μL/min. Drug induction started upon metabolic stabilization. Stabilization was assessed by daily measurements of oxygen and metabolites.
# Real-time oxygen measurements were performed optically using on-chip lifetime-based luminescence quenching (LBLQ). […] Oxygen acts as a quencher, leading to a decrease in decay time and signal intensity with increasing concentration. We chose to measure decay time, rather than signal intensity, as it is not sensitive to changes in probe concentration or excitation intensity over the course of the experiment. […] To accurately measure decay time, we chose phase modulation in which sinusoidal amplitude-modulated light is shifted in phase due to oxygen quenching. […] Measurements were carried out by averaging five consecutive 4-s exposures. Measurements were taken every 15 min.
# Bioreactors were perfused with different concentrations of compounds dissolved in culture medium. […] TC50 concentrations were determined using MATLAB by sigmoidal curve fitting. […] Time to onset was analyzed by MATLAB based on LPF and trend assessment.
# [3] = system: HK-2 proximal tubule cells; assay: Glucose accumulation assay (2-NDBG); settings: for 2-NBDG fluorescence: concentrations a thousand-fold under the threshold of cellular damage
# Experimental: To monitor glucose uptake in cells, a fluorescent analog of glucose 2-(N-(7-Nitrobenz-2-oxa-1,3-diazol-4-yl) Amino)-2-Deoxyglucose (2-NDBG), (Invitrogen, CA, USA) was used. After overnight drug exposure, the medium was removed and replaced with Dulbecco's Phosphate Buffered Saline (Sigma, USA) with 17 mM and 6 mM of 2-NDBG to match glucose concentration of HK-2 and RPTEC culture medium respectively, incubated for 1 hour at 37° C., 5% CO2 before imaging. 2-NDBG is taken up in mammalian cells by GLUT-2, if its activity or shuttling is disturbed, 2-NDBG will accumulate in the cells, showing higher green intensity.
# HK-2 [4] = assay: Reduction of toxicity (rescue) experiment with glucose transport inhibitors, lipid accumulation (LipidTox); settings: for lipotoxicity: cultures treated with the three nephrotoxic compounds
# Experimental: Quantification of lipid accumulation was performed using HCS LipidTOX™ Phospholipidosis and Steatosis Detection Kit (ThermoFisher). Briefly, HK-2 and RPTEC cells were incubated with different concentrations of compounds dissolved in culture medium and 1× Phospholipidosis Detection Reagent for 48 h, subsequently fixed in 4% PFA. Cells were then stained with 1× Green LipidTOX™ for neutral lipids for 45 min and counterstained with 1 μg/mL Hoechst 33258. Staining intensity was normalized to number of Hoechst 33258 positive nuclei.
# (§1) Empagliflozin (5 μM) a potent SGLT2 inhibitor, phloretin (1 mM) inhibits the apicobasal shuttling of the GLUT2, phlorizin (200 μM) is a mild inhibitor of SGLT1 and SGLT2. When all three inhibitors were used together, the mix was referred to as a cocktail. All experiments were performed on a 96 well plate, in triplicates with controls with no drugs, or inhibitors alone. First, cells were incubated for 1 hour with inhibitors alone and then drugs were added with inhibitors for 24 hours for LIVE DEAD assay or 48 hours for Lipid accumulation (LipidTox Assay). Cell viability was determined using LIVE/DEAD Cytotoxicity kit (Molecular Probes, USA) according to manufacturer directions. Briefly, cultures were incubated for 30 min with 2 μM calcein AM and 4 μM ethidium homodimer-1. Live cells were positive for green fluorescence due to hydrolysis of the acetoxymethyl ester group by intracellular esterases. Dead cells were positive for red fluorescence due to ethidium homodimer-1 binding intracellular DNA, possible in […]. Cellular viability was expressed as live over dead ratio and normalized based on negative (DMSO/DDW/PBS) controls. Fluorescence micrographs were analyzed for total fluorescence using ImageJ for 9 repeats for each sample. Error bars indicate ±SEM.
# (§2) After staining, plates were mounted on the fluorescent microscope for quantification. Rescue was achieved when significant percentage of live cells and/or a reduced amounts of dead cells was observed as compared with cells treated with the drug only.
# HK-2 [5] = assay: Reduction of toxicity (rescue) experiment with glucose transport inhibitors, LIVE/DEAD viability; settings: for cell viability / cell death: cultures treated with nephrotoxic drug plus inhibitor vs drug alone
# Experimental: as §1, §2
# [6] = organoids under continuous perfusion
Compound,ATP production drop (HK-2 organoids [1]),Lipogenesis increase (HK-2 organoids [1]),glycolysis drop (HK-2 organoids [1]),Oxygen uptake drop (HK-2 organoids [2]),2-NBDG fluorescence [3],lipotoxicity (HK-2 [4]),cell viability / cell death (HK-2 [5]),also measured
Gentamicin,29%,438%,65%,10%,doubles,,,"lactate over glucose ratio drop (HK-2 organoids [1]; 32 mM Gentamicin, after 10 h exposure): 85%; glucose uptake increase (HK-2 organoids [1]; after 31 hours): +196%; lactate release decrease (HK-2 organoids [1]; after 31 hours): −65.2%; Glutamine uptake change (HK-2 organoids [1]; at 31 hours): +14.1%; Glutamine uptake change (HK-2 organoids [1]; at approximately 16 hours): +76%; shift of organoid metabolism (HK-2 organoids [1]; bioreactor studies): significantly shift proximal tubular organoid metabolism towards lipogenesis; oxygen response upon perfusion (HK-2 organoids [2]; [6]): acute jump in oxygen uptake within an hour after exposure; viability at sub-toxic concentration (HK-2 organoids [2]; sub-toxic concentration used for flux analysis): > 95%; Relative 2-NDBG accumulation, increase in glucose content ([3]; HK2 cells, sub-toxic 15 h exposure): 2 fold"
O=C(CCc1ccc(O)cc1)c1c(O)cc(O)cc1O[C@@H]1O[C@H](CO)[C@@H](O)[C@H](O)[C@H]1O [Phlorizin],,,,,,significantly alleviates lipotoxicity,restores cell viability,"decrease in phospholipids content (HK-2 [4]; CsA treated cultures, compared to CsA alone): 2 fold; increase in cell viability (HK-2 [5]; CsA treated cultures, compared to cells treated with CsA alone): 2 fold"
N.N.[Cl][Pt][Cl] [Cisplatin],53%,57.6% and 57%,98.4% and 98%,36%,doubles,,,"Overall glutamine uptake (HK-2 organoids [1]; during exposure): remained constant; Time to onset (TTO) of response (HK-2 organoids [2]; HK-2 organoids, increasing concentrations, dose-dependent decrease): 13 to 22 h; time of induced damage following exposure (HK-2 organoids [2]; [6]): at least 14 hours"
O=C(CCc1ccc(O)cc1)c1c(O)cc(O)cc1O [Phloretin],,,,,,significantly alleviates lipotoxicity,restores cell viability,
OC[C@H]1O[C@@H](c2ccc(Cl)c(Cc3ccc(O[C@H]4CCOC4)cc3)c2)[C@H](O)[C@@H](O)[C@@H]1O [Empagliflozin],,,,,,significantly alleviates lipotoxicity,restores cell viability,
